Bounds are passed on as bounds.

This assay deals with HCMV engineered virus RC256. As to the kind of experiment: microbe, parasite or virus in culture. Type of assay: cell-based, human cytomegalovirus. The conditions noted are these: Human betaherpesvirus 5, Fibroblast, read-out: Antiviral Activity RC256, first value (EC50).
The term EC50 denotes the concentration at which the effect is half-maximal. With `Cc1c(CNC(=O)OCc2cccnc2)ccc2nc(N[C@@H](Cc3ccccc3)C(=O)N(C)Cc3ccccc3)oc(=O)c12` [Example 18e, 3-Pyridinylmethyl[[5-methyl-2-[[2-[methyl(phenylmethyl)amino]-2-oxo-1S-(phenylmethyl)ethyl]amino]-4-oxo-4H-3,1-benzoxazin-6-yl]methyl]carbamate], the half-maximal effective concentration (EC50) is 7 µM.
With `COC(=O)[C@H](C)Nc1nc2ccc(NS(=O)(=O)c3ccccc3)c(C)c2c(=O)o1` [Example 13a], the concentration for a half-maximal effect (EC50) was found to be 60 µM.
As to `Cc1c(CNC(=O)OCc2ccccc2)ccc2nc(N[C@@H](Cc3ccccc3)C(=O)N(C)Cc3cccnc3)oc(=O)c12` [Example 9z], the EC50 was determined as 10 µM.
Consider `COc1ccc(C[C@H](Nc2nc3ccc(CNC(=O)CCc4ccncc4)c(C)c3c(=O)o2)C(=O)N(C)Cc2ccccc2)cc1` [Example 9f, N-[[2-[[1S-[(4-Methoxyphenyl)methyl]-2-[methyl(phenylmethyl)amino]-2-oxoethyl]amino]-5-methyl-4-oxo-4H-3,1-benzoxazin-6-yl]methyl]pyridine-4-propanamide], for which the EC50 came to 40 µM.
As for `COc1ccc(C[C@H](Nc2nc3ccc(CNC(=O)NC(C)(C)C)c(C)c3c(=O)o2)C(=O)N(C)Cc2ccccc2)cc1` [Example 12d, αS-[[6-[[[[(1,1-Dimethylethyl)amino]carbonyl]amino]methyl]-5-methyl-4-oxo-4H-3,1-benzoxazin-2-yl]amino]-4-methoxy-N-methyl-N-(phenylmethyl)benzenepropanamide], the figure is 14 µM; as for `COC[C@H](Cc1ccccc1)Nc1nc2cccc(C)c2c(=O)o1` [Example 1p, 2-[[2-Methoxy-(1S)-(1-phenylmethyl)ethyl]amino]-5-methyl-4H-3,1-benzoxazin-4-one], 38 µM.
Take `COc1ccc(C[C@H](Nc2nc3ccc(NC(=O)Cc4cccs4)c(C)c3c(=O)o2)C(=O)N2CCCC2)cc1` [Example 11o, N-[2-[[1S-[(4-Methoxyphenyl)methyl]-2-oxo-2-(1-pyrrolidinyl)ethyl]amino]-5-methyl-4-oxo-4H-3,1-benzoxazin-6-yl]thiophene-2-acetamide]: the concentration giving a half-maximal response (EC50) was 59 µM.
Take `Cc1c(NC(=O)OC(C)(C)C)ccc2nc(N[C@@H](Cc3c[nH]c4ccccc34)C(=O)N(C)C)oc(=O)c12` [Example 6o, N-[6-[[(1,1-Dimethylethoxy)carbonyl]amino]-5-methyl-4-oxo-4H-3,1-benzoxazin-2-yl]-L-tryptophan, dimethylamide]: the EC50 is 59 µM.
Regarding `COC(=O)[C@H](Cc1ccccc1)Nc1nc2cccc(C)c2c(=O)o1` [Example 1k, N-(5-Methyl-4-oxo-4H-3,1-benzoxazin-2-yl)-L-phenylalanine, methyl ester], the EC50 is > 100 µM.
Turning to `COc1ccc(C[C@H](Nc2nc3ccc(CNC(=O)CN4CCOCC4)c(C)c3c(=O)o2)C(=O)N(C)Cc2ccccc2)cc1` [Example 9n, N-[[2-[[1S-[(4-Methoxyphenyl)methyl]-2-[methyl(phenylmethyl)amino]-2-oxoethyl]amino]-5-methyl-4-oxo-4H-3,1-benzoxazin-6-yl]methyl]morpholine-4-acetamide], the EC50 was 75 µM.
For the compound `Cc1c(CNC(=O)OCCN(C)C)ccc2nc(N[C@@H](Cc3ccccc3)C(=O)N(C)Cc3ccccc3)oc(=O)c12` [Example 18g, 2-(Dimethylamino)ethyl[[5-methyl-2-[[2-[methyl(phenylmethyl)amino]-2-oxo-1S-(phenylmethyl)ethyl]amino]-4-oxo-4H-3,1-benzoxazin-6-yl]methyl]carbamate], the EC50 came out at 13 µM.
As to `COC(=O)[C@H](Cc1ccc(OC)cc1)Nc1nc2cccc(C)c2c(=O)o1` [Example 1r, N-(5-Methyl-4-oxo-4H-3,1-benzoxazin-2-yl)-O-methyl-L-tyrosine, methyl ester], the half-maximal effective concentration (EC50) is 59 µM.
As for `COc1ccc(C[C@H](Nc2nc3ccc(CNC(=O)OCc4ccccc4)c(C)c3c(=O)o2)C(=O)N(C)Cc2ccccc2)cc1` [Example 9i, Phenylmethyl[[2-[[1S-[(4-methoxyphenyl)methyl]-2-[methyl(phenylmethyl)amino]-2-oxcethyl]amino]-5-methyl-4-oxo-4H-3,1-benzoxazin-6-yl]methyl]carbamate], the figure is 14 µM; as for `Cc1c(NC(=O)N[C@H](C)c2ccccc2)ccc2nc(N[C@H](C)c3ccccc3)oc(=O)c12` [Example 12c, ^6-[[[[(1R)-Phenylethyl]amino]carbonyl]amino]-5-methyl-2-[[(1R)-phenylethyl]amino]-4H-3,1-benzoxazin-4-one], 17 µM; as for `COC(=O)[C@H](Cc1ccccc1)Nc1nc2ccc(NS(=O)(=O)c3ccccc3)c(C)c2c(=O)o1` [Example 13], 60 µM.
For the compound `Cc1c(CNC(=O)CCc2ccccc2)ccc2nc(N[C@@H](Cc3ccccc3)C(=O)N(C)Cc3ccccc3)oc(=O)c12` [Example 9w, N-Methyl-αS-[[5-methyl-6-[[(1-oxo-3-phenylpropyl)amino]-methyl]-4-oxo-4H-3,1-benzoxazin-2-yl]amino]-N-(phenylmethyl)benzenepropanamide], the EC50 amounted to 13 µM.
Turning to `CCOC(=O)Nc1ccc2nc(N[C@@H](Cc3ccc(OC)cc3)C(=O)N(C)Cc3ccccc3)oc(=O)c2c1C` [Example 11r, Ethyl[2-[[1S-[(4-methoxyphenyl)methyl]-2-[methyl(phenylmethyl)amino]-2-oxoethyl]amino]-5-methyl-4H-3,1-benzoxazin-6-yl]carbamate], the EC50 amounted to 12 µM.
For the compound `Cc1cccc2nc(N[C@@H](Cc3ccc(O)cc3)C(=O)OC(C)(C)C)oc(=O)c12` [Example 1l, N-(5-Methyl-4-oxo-4H-3,1-benzoxazin-2-yl)-L-tyrosine, 1,1-dimethylethyl ester], the EC50 amounted to 35 µM.
The value for `COc1ccc(C[C@H](Nc2nc3ccc(CNC(=O)OCCN4CCOCC4)c(C)c3c(=O)o2)C(=O)N(C)Cc2ccccc2)cc1` [Example 18b, 2-(4-Morpholinyl)ethyl[[2-[[1S-[(4-methoxyphenyl)methyl]-2-[methyl(phenylmethyl)amino]-2-oxoethyl]amino]-5-methyl-4-oxo-3,1-benzoxazin-6-yl]methyl]carbamate] was 12 µM; that for `COc1ccc(C[C@H](Nc2nc3ccc(CNC(=O)OCCN(C)C)c(C)c3c(=O)o2)C(=O)N(C)Cc2ccccc2)cc1` [Example 18c, 2-(Dimethylamino)ethyl[[2-[[1S-[(4-methoxyphenyl)methyl]-2-[methyl(phenylmethyl)amino]-2-oxoethyl]amino]-5-methyl-4-oxo-3,1-benzoxazin-6-yl]methyl]carbamate] was 15 µM.
Take `Cc1c(CNC(=O)OCCN2CCOCC2)ccc2nc(N[C@@H](Cc3ccccc3)C(=O)N(C)Cc3ccccc3)oc(=O)c12` [Example 18h]: the EC50 was 11 µM.
In the case of `COc1ccc(C[C@H](Nc2nc3ccc(CNC(=O)CN4CCCC4)c(C)c3c(=O)o2)C(=O)N(C)Cc2ccccc2)cc1` [Example 9c, N-[[2-[[1S-[(4-Methoxyphenyl)methyl]-2-[methyl(phenylmethyl)amino]-2-oxoethyl]amino]-5-methyl-4-oxo-4H-3,1-benzoxazin-6-yl]methyl]pyrrolidine-1-acetamide], the half-maximal effective concentration (EC50) came to 9 µM.
As for `COc1ccc(C[C@H](Nc2nc3ccc(NC(=O)OC(C)(C)C)c(C)c3c(=O)o2)C(=O)N2CCOCC2)cc1` [Example 6i, N-[6-[[(1,1-Dimethylethoxy)carbonyl]amino]-5-methyl-4-oxo-4H-3,1-benzoxazin-2-yl]-O-methyl-L-tyrosine, morpholineamide], the EC50 came to 48 µM.
The value for `COc1ccc(C[C@H](Nc2nc3ccc(CNC(=O)OCCN4CCCCC4)c(C)c3c(=O)o2)C(=O)N(C)Cc2ccccc2)cc1` [Example 18a, 2-(1-Piperidinyl)ethyl[[2-[[1S-[(4-methoxyphenyl)methyl]-2-[methyl(phenylmethyl)amino]-2-oxoethyl]amino]-5-methyl-4-oxo-3,1-benzoxazin-6-yl]methyl]carbamate] was 5 µM; that for `Cc1c(CNC(=O)CCc2ccccc2)ccc2nc(N[C@@H](Cc3ccccc3)C(=O)N(C)Cc3cccnc3)oc(=O)c12` [Example 9aa, N-Methyl-αS-[[5-methyl-4-oxo-6-[[(1-oxo-3-phenylpropyl)amino]methyl]-4H-3,1-benzoxazin-2-yl]amino]-N-(3-pyridinylmethyl)benzenepropanamide] was 33 µM; that for `COc1ccc(C[C@H](Nc2nc3ccc(NC(=O)OC(C)(C)C)c(C)c3c(=O)o2)C(=O)N(C)C)cc1` [Example 6d, N-[6-[[(1,1-Dimethylethoxy)carbonyl]amino]-5-methyl-4-oxo-4H-3,1-benzoxazin-2-yl]-O-methyl-L-tyrosine, dimethylamide] was 45 µM.
On to `CCN(Cc1ccccc1)C(=O)[C@H](Cc1ccccc1)Nc1nc2ccc(CNC(=O)OC(C)(C)C)c(C)c2c(=O)o1` [Example 7l, 1,1-Dimethylethyl[[2-[[2-[ethyl(phenylmethyl)amino]-2-oxo-1S-(phenylmethyl)ethyl]amino]-5-methyl-4-oxo-4H-3,1-benzoxazin-6-yl]methyl]carbamate], for which the half-maximal effective concentration (EC50) stood at 13 µM.
Turning to `CC(=O)NCc1ccc2nc(N[C@@H](Cc3ccccc3)C(=O)N(C)Cc3ccccc3)oc(=O)c2c1C` [Example 9x, αS-[[6-[(Acetylamino)methyl]-5-methyl-4-oxo-4H-3,1-benzoxazin-2-yl]amino]-N-methyl-N-(phenylmethyl)benzenepropanamide], the EC50 worked out at 16 µM.
The value for `COc1ccc(C[C@H](Nc2nc3cccc(C)c3c(=O)o2)C(=O)N(C)Cc2ccccc2)cc1` [Example 1s, αS-[(5-Methyl-4-oxo-4H-3,1-benzoxazin-2-yl)amino]-4-methoxy-N-methyl-N-(phenylmethyl)benzenepropanamide] was 7 µM; that for `COC(=O)[C@@H](C)Nc1nc2cccc(C)c2c(=O)o1` [Example 1c, N-(5-Methyl-4-oxo-4H-3,1-benzoxazin-2-yl)-D-alanine, methyl ester] was > 100 µM; that for `COc1ccc(C[C@H](Nc2nc3ccc(CNC(=O)NCc4ccncc4)c(C)c3c(=O)o2)C(=O)N(C)Cc2ccccc2)cc1` [Example 9e, 4-Methoxy-N-methyl-αS-[[5-methyl-4-oxo-6-[[[[[(4-pyridinyl)methyl]amino]carbonyl]amino]methyl]-4H-3,1-benzoxazin-2-yl]amino]-N-(phenylmethyl)benzenepropanamide] was 35 µM.

Values taken from patent US6683077B2, “2-Amino-benzoxazinones for the treatment of viral infections” (G.D. Searle & Co., priority 1996, dated 2004).
